Measurements published in ChEMBL document CHEMBL1126399, “Synthesis and enzymatic properties of a deoxy analog of phosphatidylinositol” (Bioorg Med Chem Lett, 1992).

Assay: Inhibition of phosphatidylinositol (PI) hydrolysis
Assay type: functional

IC50: 2 mM
SMILES: CCCCCCCCCCCCCCCC(=O)OC[C@H](COP(=O)(O)O[C@H]1C[C@@H](O)C(O)[C@@H](O)C1O)OC(=O)CCCCCCCCCCCCCCC (stereo partly specified)
